Results taken from publication PMC6374102 (Science Advances, 2019).

Experiments:
[1] = test system: λ-carrageenan–induced inflammatory pain injected rats; test: Hargreaves thermal nociception test in λ-carrageenan-induced paw edema model; type: in vivo; details: LENK-SQ NPs 20 mg/kg i.v.; morphine 1 mg/kg; rat
[2] = In vitro release of LENK from NPs / bioconjugate stability in serum; type: in vitro ADME; details: diluted male SWISS mouse serum (30% in 5% dextrose), 37°C; RP-HPLC, UV 257 nm

CC(C)=CCC/C(C)=C/CC/C(C)=C/CC/C=C(\C)CC/C=C(\C)CCC(=O)OCOC(=O)C(CC(C)C)NC(=O)C(Cc1ccccc1)NC(=O)CNC(=O)CNC(=O)C(N)Cc1ccc(O)cc1 (centres unmarked) [LENK-SQ-Diox, Leu-enkephalin-squalene with dioxycarbonyl linker]
AUC of PWL time course, comparison between treatments [1]: significantly higher AUC than morphine and LENK-SQ-Am NPs
Time that the released LENK peptide still lasted in serum [2]: over 10 hours
